Patent publication US7753966B2, “Hair dye stabilizer” (Takasago International Corporation, priority 2006, dated 2010)

Tests used:
[1] = Color tone of liquid hair dye base first preparation after storage, visually observed by three panelists; format: physicochemical; details: for Color tone: room temperature; for concentration at which a stabilization effect was shown: stored at room temperature for 2 weeks, judged from full-color photographs
Procedure: 40 g of a liquid hair dye base first preparation obtained by adding thioglycerol to a liquid hair dye base (Bigen Speedy Color, manufactured by Hoyu Co. Ltd.) in an amount adjusted as shown in Table 2 was placed in a 100 ml shampoo bottle and, after purging with nitrogen gas was performed, the bottle was capped and stored at room temperature.
Immediately after the passage of a given period of storage time of the shampoo bottle in which the above liquid hair dye base first preparation was placed, the color tone of the liquid hair dye base first preparation was visually observed by three panelists. The color tones in the table show the color tones of the results observed by the largest number of the panelists (the same shall apply hereinafter). Moreover, photographs of change in color tone of the hair dye base first preparation immediately after the passage of the above given period are shown in FIG. 1 to FIG. 3. […]

[2] = Stability test: remaining dye in liquid hair dye base first preparation by HPLC; format: physicochemical; details: finding stated in text
Procedure: 50 g of a liquid hair dye base (Bigen Speedy Color, manufactured by Hoyu Co. Ltd.) was weighed into a separable flask, and 0.1 g of thioglycerol was added. After the above separable flask was purged with nitrogen gas, the whole was stirred under a flow of nitrogen gas. After the resultant was divided into 40 g each in a 100 ml shampoo bottle and purging with nitrogen gas was performed, the bottle was capped, thereby a liquid hair dye base first preparation being prepared.
The liquid hair dye base first preparation of Example 1 was stored in a constant-temperature tank set at room temperature or 40° C. for 30 days. This first preparation was used as a sample.
About 4 g of an acetonitrile solution containing 500 ppm of benzonitrile was placed in a 10 mL sample vial and then the amount was accurately measured. About 0.2 g of the above sample was added thereto and the amount was accurately measured, followed by thorough mixing. The liquid in the sample vial was sucked by means of a syringe and was placed in a vial under filtration. Then, it was analyzed by means of a column ODS-80A in high performance liquid chromatography (HP 1100 manufactured by Hewlett-Packard Company) to measure amounts of remaining dyes in the sample.
A liquid hair dye base first preparation was prepared by performing the same operations as in Example 1 except that thioglycolic acid was used instead of thioglycerol. […]

[3] = 0.1 ppm (0.00001 %) added, 1 Day
[4] = 0.1 ppm (0.00001 %) added, 2 Weeks
[5] = 0.1 ppm (0.00001 %) added, 4 Days
[6] = 1 ppm (0.0001 %) added, 2 Weeks
[7] = 10 ppm (0.001 %) added, 2 Weeks
[8] = 100 ppm (0.01 %) added, 2 Weeks
[9] = 1000 ppm (0.1 %) added, 2 Weeks

| Compound | Color tone ([1]; 0.0001 ppm added, 1 Day) | Color tone ([1]; 0.0001 ppm added, 2 Weeks) | Color tone ([1]; 0.0001 ppm added, 4 Days) | Color tone ([1]; 0.001 ppm added, 1 Day) | Color tone ([1]; 0.001 ppm added, 2 Weeks) | Color tone ([1]; 0.001 ppm added, 4 Days) | Color tone ([1]; 0.01 ppm added, 1 Day) | Color tone ([1]; 0.01 ppm added, 2 Weeks) | Color tone ([1]; 0.01 ppm added, 4 Days) | Color tone [1, 3] | Color tone [1, 4] | Color tone [1, 5] | Color tone ([1]; 1 ppm (0.0001 %) added, 1 Day) | Color tone [1, 6] | Color tone ([1]; 1 ppm (0.0001 %) added, 4 Days) | Color tone ([1]; 10 ppm (0.001 %) added, 1 Day) | Color tone [1, 7] | Color tone ([1]; 10 ppm (0.001 %) added, 4 Days) | Color tone ([1]; 100 ppm (0.01 %) added, 1 Day) | Color tone [1, 8] | also measured |
| --- | --- | --- | --- | --- | --- | --- | --- | --- | --- | --- | --- | --- | --- | --- | --- | --- | --- | --- | --- | --- | --- |
| CC(C)=CCC/C(C)=C/CS [thiogeraniol, (E)-3,7-dimethyl-2,6-octadien-1-thiol] | black | brown | black | black | brown | black | black | brown | black | black | brown | black | black | brown | black | black | brown | black | black | brown | Color tone ([1]; 100 ppm (0.01 %) added, 4 Days): black; Color tone ([1]; 1000 ppm (0.1 %) added, 1 Day): brown; Color tone [1, 9]: brown; Color tone ([1]; 1000 ppm (0.1 %) added, 4 Days): black; Color tone ([1]; 10000 ppm (1 %) added, 1 Day): orange; Color tone ([1]; 10000 ppm (1 %) added, 2 Weeks): orange; Color tone ([1]; 10000 ppm (1 %) added, 4 Days): orange; concentration at which a stabilization effect was shown [1]: ≤ 0.0001 ppm |
| OCCS [thioglycol, 2-mercaptoethanol] | black | brown | black | black | brown | black | black | brown | black | black | brown | black | black | brown | black | black | brown | black | black | brown | Color tone ([1]; 100 ppm (0.01 %) added, 4 Days): black; Color tone ([1]; 1000 ppm (0.1 %) added, 1 Day): brown; Color tone [1, 9]: orange; Color tone ([1]; 1000 ppm (0.1 %) added, 4 Days): orange; Color tone ([1]; 10000 ppm (1 %) added, 1 Day): orange; Color tone ([1]; 10000 ppm (1 %) added, 2 Weeks): orange; Color tone ([1]; 10000 ppm (1 %) added, 4 Days): orange; concentration at which a stabilization effect was shown [1]: ≤ 0.0001 ppm |
| O=C(O)CS [thioglycolic acid] | – | – | – | – | – | – | – | – | – | – | – | – | – | – | – | – | – | – | – | – | effect on stability of p-nitro-o-phenylenediamine [2]: promotes the deterioration; effect on stability of resorcin [2]: promotes the deterioration |
